In US8323680B1, “Nutritional composition” (Nestec S.A., priority 1999, dated 2012):

Columns and labels:
animals = settings: injected into animals; cited from earlier work
[1] = Effects of oral administration of cannabimimetic lipids on ambulation, rearing, immobility, analgesia, body temperature and fecal output (FIG. 3-5); type: in vivo; settings: for immobility, difference from control group / rearing, difference from control group / body temperature, difference from control group: p<0.01-0.05, ANOVA, Newman-Keuls
mice = settings: oral, anandamide 300 mgkg body weight−1, 2-arachidonoyl glycerol 400 mgkg body weight−1; cited from earlier work
male Rj:NMRI mice = assay: ELEVATED PLUS MAZE TEST, number of entries in the closed arms; type: in vivo; settings: for Number of Entries in the Closed Arms, average entries: diets for 42 days, agent intraperitoneally 60 minutes before test
Protocol: In order to show the biological activity of the composition of the present invention on animal's behaviour the effect of dietary poly-unsaturated fatty acids with and without a CB-1 receptor antagonist on anxiolytic-like responses in mice were tested. To this end, the ELEVATED PLUS MAZE TEST was applied (adapted after Handley and Mithani (Naunyn. Schmied. Arch. Pharmacol. 327: 1-5, 1984).
For the experiments male Rj:NMRI mice, obtained from Elevage Janvier, Le Genest-Saint-Isle France and weighing 10-11 g at delivery and 33-51 grams on day 42 were used. The mice were housed 10 per cage in wire cages with bedding and normal light cycle. They received ad libitum quantities of bottled distilled water and purified powdered diets (7.5 g/mouse) in ceramic cups (10/group) for 42 days. The Food was maintained at −80° C. in daily aliquots under nitrogen, thawed each afternoon before administration to mice. Uneaten food was discarded daily.
The principle of the test resides in that anxiolytic agents increase the number of entries into the open and often the closed arms of the […], mice should want to move and explore the spaces of the open and closed arms rather than staying still in the middle).
Mice were given the following agents intraperitoneally 60 minutes before the Plus Maze test:
All diets contained 90% fat-free AIN93G rodent diet in powder form (Lot 9350-5, Dyets, Inc., Bethlehem, Pa.), 0.4% milk fat, 1.2% palm olein, 1.9% Trisun sunflower oil, 1.5% soybean oil and 2.1-5.1% medium chain triacylglycerol oil. Parts of the medium chain triacylglycerol oil were replaced with 1.1% algal oil (providing 0.5 dietary wt.-% arachidonic acid) in diet D, 1.9% fish oil (providing 0.5 dietary wt.-% docosahexaenoic acid) in diet E, and with 1.1% algal oil and 1.9% fish oil in diets F and G. Dietary groups are summarized in the table below:
The body weight, weight gain and the food intake of the mice was monitored throughout the experiment. […]

Molecule | effects of pure doses when injected (animals) | immobility, difference from control group ([1]; oral administration) | rearing, difference from control group ([1]; oral administration) | body temperature, difference from control group [1] | bioactivity when taken orally (mice) | Number of Entries in the Closed Arms, average entries (male Rj:NMRI mice) | analgesia ([1]; oral administration) | Number of Entries in the Closed Arms, difference vs. group A (male Rj:NMRI mice; p-value = 0.19)
CCCCCCCC/C=C\CCCCCCCC(N)=O [oleamide] | calming effects and effects on the immune system | significantly different | significantly different | significantly different | – | – | – | –
N-arachidonylethanolamine [anandamide] | calming effects and effects on the immune system | significantly different | significantly different | significantly different | have bioactivity | – | – | –
CN1C(=O)CC(=O)N(c2ccccc2)c2cc(Cl)ccc21 [Clobazam] | – | – | – | – | – | 6.3 | – | –
2 arachidonylglycerol [Diet 2-AG] | calming effects and effects on the immune system | significantly different | significantly different | significantly different | have bioactivity | – | – | –
CCCCCc1cc(O)c2c(c1)OC(C)(C)[C@@H]1CCC(C)=C[C@@H]21 [THC, 9-tetrahydrocannabinol] | – | significantly different | significantly different | significantly different | – | – | significantly increased analgesia | –
Cc1c(C(=O)NN2CCCCC2)nn(-c2ccc(Cl)cc2Cl)c1-c1ccc(I)cc1 [C] | – | – | – | – | – | 2.3 | – | There was no significant difference (p-value = 0.19).
